The target of assay [1] is T1, human NPP6 (Homo sapiens, UniProt Q6UWR7).
T1 construct: transfected with human NPP6ex^51 or human NPP7ex expression plasmids; made in house; host or cells: HEK293 cells, transient transfection, pcDNA3.1(+); unconcentrated conditioned medium (CM)
T1 sequence (Q6UWR7 23-419 limits assumed): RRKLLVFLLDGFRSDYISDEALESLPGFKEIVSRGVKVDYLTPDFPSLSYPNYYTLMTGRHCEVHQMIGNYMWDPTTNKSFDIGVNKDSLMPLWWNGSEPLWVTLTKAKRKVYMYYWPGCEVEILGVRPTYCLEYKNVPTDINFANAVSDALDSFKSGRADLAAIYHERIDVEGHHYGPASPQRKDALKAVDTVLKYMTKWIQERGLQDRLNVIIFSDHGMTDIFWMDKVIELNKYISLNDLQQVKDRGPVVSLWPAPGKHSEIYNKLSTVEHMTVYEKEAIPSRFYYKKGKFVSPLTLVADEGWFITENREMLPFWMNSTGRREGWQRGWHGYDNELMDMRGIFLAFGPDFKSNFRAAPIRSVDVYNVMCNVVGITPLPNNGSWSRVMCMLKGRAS
Nature of the assay: Determination of NPP6 inhibition (pNPPC substrate). Particulars: 10 μM inhibitor. It counts as biochemical. The method, then:
(§1) Inhibitor selectivity was assayed using p-nitrophenylphosphoryl-choline (pNPPC) (Sigma-Aldrich, St. Louis, Mo.) as substrate for NPP6 and NPP7. The final volume (60 μL) included 20 μL (CM, NPP6 or CCM, NPP7, 20 μL inhibitor (10 μM including 1% DMSO) in assay buffer, and 20 μL pNPPC (10 mM, NPP6 or 1 NPP7) in assay buffer. NPP6 assay buffer contained 500 mM NaCl, 0.05% Triton X-100, 100 mM Tris-HCl (pH 9.0), whereas NPP7 assay buffer was comprised of 50 mM Tris HCl, pH 8.5, 150 mM NaCl, and 10 mM taurocholic acid. However, unlike the published methods, EDTA was not added to the NPP7 assay buffer. All assays were performed in 96-well, half area plates (Corning Inc., Lowell, Mass.) at 37° C. with data collected at 2 minute intervals using a Synergy2 absorbance plate reader (BioTek, Winooski, Vt.). Results are shown at the one hour time point, when all absorbance changes as a function of time were linear. Readings were normalized to vehicle control after subtraction of absorbance in the absence of CM or CCM. Data are shown as the mean±S.D. of at least three wells. All experiments were repeated twice and representative results are shown.
(§2) Assays were performed with CM or CCM from HEK293 cells transiently transfected with NPP6 and 7 expression plasmids, respectively. HEK293 cells were seeded in Dulbecco's modified Eagle's medium (DMEM) containing 10% fetal bovine serum, 100 U/ml penicillin, 100 μg/ml streptomycin (Hyclone, Logan, Utah), and 2 mM L-glutamine. HEK293 cells were grown overnight at 37° C. under 5% CO2 to 80% confluence. The cells were then transfected with human NPP6ex^51 or human NPP7ex expression plasmids in the pcDNA3.1(+) mammalian vector in the presence of Polyfect Transfection Reagent (Hyclone, Logan, Utah). Six hours after transfection, the culture medium was changed to serum free DMEM containing L-glutamine and cells were incubated for 48 hours. Expressed protein was collected (NPP6 and NPP7) and concentrated ˜10×(NPP7) using 10 kDa molecular weight cutoff filters (Millipore, Beverly, Mass.) in an Amicon pressure cell (Millipore, Beverly, Mass.).

Assay [2] concerns the target T2, human NPP7 (Homo sapiens, UniProt Q6UWV6).
T2 construct: transfected with human NPP6ex^51 or human NPP7ex expression plasmids; made in house; host or cells: HEK293 cells, transient transfection, pcDNA3.1(+); conditioned medium concentrated about 10x (CCM)
T2 sequence (Q6UWV6 22-433 limits assumed): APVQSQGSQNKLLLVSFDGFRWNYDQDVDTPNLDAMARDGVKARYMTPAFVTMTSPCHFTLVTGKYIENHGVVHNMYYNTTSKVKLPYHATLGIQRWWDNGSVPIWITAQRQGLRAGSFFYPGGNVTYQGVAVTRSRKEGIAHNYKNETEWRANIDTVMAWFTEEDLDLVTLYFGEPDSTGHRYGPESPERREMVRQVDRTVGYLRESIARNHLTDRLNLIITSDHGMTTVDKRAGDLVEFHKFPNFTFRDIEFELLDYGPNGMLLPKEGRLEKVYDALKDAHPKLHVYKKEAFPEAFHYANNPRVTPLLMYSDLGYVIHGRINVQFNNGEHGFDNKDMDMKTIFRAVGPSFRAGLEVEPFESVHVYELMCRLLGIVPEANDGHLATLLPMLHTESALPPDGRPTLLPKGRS
Nature of the assay: Determination of NPP7 inhibition (pNPPC substrate). It counts as biochemical. Particulars: 10 μM inhibitor. The procedure:
as §1, §2

In assay [3] the target is T3, ATX (Homo sapiens, UniProt Q13822). Particulars: for Inhibition Mechanism: FS-3 substrate.
For assay [4], the target named is T3, ATX. Nature of the assay: ATX inhibition assay with FS-3 substrate. It counts as biochemical. Further details: conditioned serum-free medium (CCM) from MDA-MB-435 cells as the source of ATX; endogenous in cells; host or cells: MDA-MB-435 cells (about 10x concentrated serum-free conditioned medium). The note with it: for % Response at 10 μM (FS-3): 10 μM compound, FS-3 hydrolysis normalized to vehicle control (low = strong inhibition), mean ± S.D.; for single dose response comparison by aromatic substituent and position: Table 2, same values as % Response at 10 μM; for inhibition at 10 µM: single dose 10 μM, % inhibition, read-out: inhibition of ATX-mediated hydrolysis of FS-3.

The target in assay [5] is T3, ATX. Nature of the assay: biochemical.
Where [6] appears, read: Ki (nM), competitive inhibitors.
The mark [7] stands for this setting: Ki (μM), FS-3 substrate, for mixed mode Ki=IC50 assumed.

Bounds are passed on as bounds.

As for `CCn1cc(C(=O)O)c(=O)c2cnc(N3CCN(C(=S)Nc4ccc(I)cc4)CC3)nc21` [Compound 3, 2-(4-{[(4-iodophenyl)amino]carbonothioyl}-1-piperazinyl)-8-ethyl-5-oxo-5,8-dihydropyrido[2,3-d]pyrimidine-6-carboxylic acid], the “effect on activity of NPP6” value in assay [1] is reported as “None of the compounds affected the activity”. The “effect on activity of NPP7” value in assay [2] is reported as “None of the compounds affected the activity”. Further, in assay [3], the “mechanism of ATX inhibition” value is “mixed-mode” and the “Inhibition Mechanism” value was “Mixed”. Also, in assay [4], the “% Response at 10 μM (FS-3)” value is 32.7 ± 1.3%; the “single dose response comparison by aromatic substituent and position” value (shortened to “single dose response comparison”) is reported as 32.7 ± 1.3; the inhibition at 10 µM is at least 50%.

Regarding `CCn1cc(C(=O)O)c(=O)c2cnc(N3CCN(C(=S)Nc4ccc5nsnc5c4)CC3)nc21` [Compound 7, 2-(4-{[(3-benzothiadiazolphenyl)amino]carbonothioyl}-1-piperazinyl)-8-ethyl-5-oxo-5,8-dihydropyrido[2,3-d]pyrimidine-6-carboxylic acid], the “effect on activity of NPP6” value in assay [1] is recorded as “None of the compounds affected the activity”. For the same molecule, the “effect on activity of NPP7” value in assay [2] is listed as “None of the compounds affected the activity”. Moreover, in assay [3], the “mechanism of ATX inhibition” value is recorded as “competitive”, the “potency relative to the lead compound” value is on record as “at least as potent as the lead compound” and the “Inhibition Mechanism” value is listed as “Competitive”. The molecule also had a Ki in assay [5] (setting [6]) of 30 to 430 nM. Moreover, affinity in assay [5] (setting [7]) was put at a Ki of 430 nM. Besides, in assay [4], the “% Response at 10 μM (FS-3)” value was 28.6 ± 2.0% and the inhibition at 10 µM is at least 50%. Further, the IC50 in assay [4] (FS-3 substrate) came to 12.1 ± 2.4 µM. The molecule further returned an IC50 in assay [4] (Substrate FS-3 (1 μM)) of 12.1 µM.

Turning to `CCn1cc(C(=O)O)c(=O)c2cnc(N3CCN(C(=S)Nc4cccc(C(F)(F)F)c4)CC3)nc21` [Compound 11, 2-(4-{[(3-trifluoromethylphenyl)amino]carbonothioyl}-1-piperazinyl)-8-ethyl-5-oxo-5,8-dihydropyrido[2,3-d]pyrimidine-6-carboxylic acid], in assay [1], the “effect on activity of NPP6” value was “None of the compounds affected the activity”. For the same molecule, in assay [2], the “effect on activity of NPP7” value is recorded as “None of the compounds affected the activity”. For the same molecule, in assay [3], the “mechanism of ATX inhibition” value was “competitive”, the “potency relative to the lead compound” value was “at least as potent as the lead compound” and the “Inhibition Mechanism” value was “Competitive”. Further, the Ki in assay [5] (Ki) stood at 30 nM. In assay [5] (setting [6]), this molecule displayed a Ki of 30 to 430 nM. For the same molecule, in assay [4], the “% Response at 10 μM (FS-3)” value is reported as 0.3 ± 0.6%; the “single dose response comparison” value is given as 0.3 ± 0.6. Also, the midpoint of inhibition in assay [4] (FS-3 substrate), the IC50, lay at 0.9 ± 0.3 µM. Further, the IC50 in assay [4] (Substrate FS-3 (1 μM)) was 0.9 ± 0.3 µM.

As for `CCn1cc(C(=O)O)c(=O)c2cnc(N3CCN(C(=S)Nc4cccc(C)c4)CC3)nc21` [Compound 13, 2-(4-{[(3-methylphenyl)amino]carbonothioyl}-1-piperazinyl)-8-ethyl-5-oxo-5,8-dihydropyrido[2,3-d]pyrimidine-6-carboxylic acid], in assay [1], the “effect on activity of NPP6” value was “None of the compounds affected the activity”. Besides, in assay [2], the “effect on activity of NPP7” value is “None of the compounds affected the activity”. In addition, in assay [3], the “mechanism of ATX inhibition” value is recorded as “mixed-mode”, the “potency relative to the lead compound” value is “as potent as or significantly less potent than the lead” and the “Inhibition Mechanism” value is recorded as “Mixed”. This molecule yielded a Ki in assay [5] (Ki) of 1700 to 13500 nM. Moreover, in assay [5] (setting [7]), the affinity, expressed as Ki, was 13500 nM. Also, in assay [4], the “% Response at 10 μM (FS-3)” value is 41.9 ± 0.8% and the inhibition at 10 µM is at least 50%. In assay [4] (FS-3 substrate), this molecule returned an IC50 of 13.5 ± 1.3 µM.

On to `CCn1cc(C(=O)O)c(=O)c2cnc(N3CCN(C(=S)Nc4ccc(F)cc4)CC3)nc21` [Compound 23, 2-(4-{[(4-fluorophenyl)amino]carbonothioyl}-1-piperazinyl)-8-ethyl-5-oxo-5,8-dihydropyrido[2,3-d]pyrimidine-6-carboxylic acid], for which the “effect on activity of NPP6” value in assay [1] is listed as “None of the compounds affected the activity”. Also, the “effect on activity of NPP7” value in assay [2] is on record as “None of the compounds affected the activity”. Moreover, in assay [4], the “% Response at 10 μM (FS-3)” value is given as 48.9 ± 1.1%; the “single dose response comparison” value was 48.9 ± 1.1; the inhibition at 10 µM was at least 50%. The molecule also had an IC50 in assay [4] (FS-3 substrate) of 17.7 µM.

For `CCn1cc(C(=O)O)c(=O)c2cnc(N3CCN(C(=S)Nc4cccc(F)c4)CC3)nc21` [Compound 25, 2-(4-{[(3-fluorophenyl)amino]carbonothioyl}-1-piperazinyl)-8-ethyl-5-oxo-5,8-dihydropyrido[2,3-d]pyrimidine-6-carboxylic acid], in assay [1], the “effect on activity of NPP6” value was “None of the compounds affected the activity”. Besides, the “effect on activity of NPP7” value in assay [2] is recorded as “None of the compounds affected the activity”. Further, in assay [4], the “% Response at 10 μM (FS-3)” value is 40.5 ± 1.0%; the “single dose response comparison” value worked out at 40.5 ± 1.0; the inhibition at 10 µM was at least 50%. Moreover, it took 16.1 ± 4.5 µM to reach half-maximal inhibition in assay [4] (FS-3 substrate) (IC50).

On to `CCn1cc(C(=O)O)c(=O)c2cnc(N3CCN(C(=S)Nc4ccc(C)cc4)CC3)nc21` [Compound 27, 2-(4-{[(4-methylphenyl)amino]carbonothioyl}-1-piperazinyl)-8-ethyl-5-oxo-5,8-dihydropyrido[2,3-d]pyrimidine-6-carboxylic acid], for which, in assay [1], the “effect on activity of NPP6” value was “None of the compounds affected the activity”. Moreover, in assay [2], the “effect on activity of NPP7” value is “None of the compounds affected the activity”. In assay [4], the “% Response at 10 μM (FS-3)” value came to 49.9 ± 1.5% and the inhibition at 10 µM is at least 50%. The IC50 in assay [4] (FS-3 substrate) is 16.1 ± 4 µM.

With `CCn1cc(C(=O)O)c(=O)c2cnc(N3CCN(C(=S)Nc4cccc(I)c4)CC3)nc21` [Compound 29, 2-(4-{[(3-iodophenyl)amino]carbonothioyl}-1-piperazinyl)-8-ethyl-5-oxo-5,8-dihydropyrido[2,3-d]pyrimidine-6-carboxylic acid], the “effect on activity of NPP6” value in assay [1] is on record as “None of the compounds affected the activity”. In assay [2], the “effect on activity of NPP7” value is listed as “None of the compounds affected the activity”. In assay [3], the “mechanism of ATX inhibition” value was “uncompetitive” and the “Inhibition Mechanism” value is “Uncompetitive”. Also, in assay [4], the “% Response at 10 μM (FS-3)” value amounted to 8.6 ± 0.9%; the “single dose response comparison” value was 8.6 ± 0.9; the inhibition at 10 µM was at least 50%.

Values taken from US8497371B2, “Pipemidic acid derivative autotaxin inhibitors” (University of Memphis Research Foundation, priority 2009, dated 2013).
